Data on 1 molecule can be found in patent publication US20260167659A1, “STING AGONISTS” (LIGACHEM BIOSCIENCES INC., priority 2022, published 2026).

One data set deals with T1, hSTING-WT (R232) (Homo sapiens, UniProt Q86WV6, H232R).
T1 construct: host or cells: THP1-Dual cells (human monocytes) with knocked-in hSTING R232
In words: STING activation, THP1-Dual IRF3 reporter assay, hSTING-R232 cells. Format: cell-based. Conditions: IRF3 luciferase reporter, 24 hours, read-out: STING activity using hSTING-R232 cells EC50. A digest of the protocol:
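THP1-Dual monocytes carrying knocked-in hSTING-WT (R232), H232 or HAQ variants were seeded at 9.0×10^4 cells per well and treated next day with serially diluted compounds for 24 h. Secreted IRF-Lucia luciferase in the supernatant was read by luminescence, and EC50 values were fitted with a 4-parameter model.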
(In a reporter assay the amount or activity of a reporter protein is the signal.)

Data set [1] concerns human peripheral blood mononuclear cells (PBMCs). In words: Cytokine production induction in PBMCs (ELISA). Format: cell-based. Conditions: 1 μM, 24 hours. How it is done: The cells (2.0×10^4 cells per well) were seeded in a flat-bottomed 96-well plate. PBMCs were stimulated with STING agonist compounds described herein (Compound 214, 221, and 230) at 1 μM for 24 hours. BxPC-3 and MDA-MB-468 tumor cells were treated with STING agonist compounds described herein (Compound 313) in a 5-fold serial dilution from […] for 24 hours, respectively. The levels of cytokines in the culture supernatants were measured using the ELISA kit (R&D systems, #DY266, #DY9345-05) according to the manufacture's instruction.
Briefly, each well of a 96-well plate was coated with 100 μL of the diluted capture antibody in PBS and incubated overnight at room temperature (RT). Next day, each well was washed with wash buffer (0.05% Tween 20 in PBS) three times using an auto-washer. The plates were blocked with 300 μL of Reagent Diluent (1% BSA in PBS) for 1 hour at RT. The aspiration/wash step was repeated. 100 μL of diluted samples or standards in Reagent Diluent was added to each well and incubated for 2 hours at RT. After wash, 100 μL of the Detection Antibody pre-diluted in Reagent Diluent was added into each well and incubated for 2 hours at RT. After wash, 100 μL of the working diluted […] in Reagent Diluent was added and incubated under subdued light conditions for 20 minutes, followed by repeated aspiration/wash. 100 μL of substrate solution (mixed H2O2 and Tetramethylbenzidine in a 1:1 ratio) was added and incubated for 20 minutes at RT in avoiding direct light exposure. The reaction was stopped by adding 50 μL of stop solution (2N H2SO4). The optical density was determined using a microplate reader (Molecular Devices VersaMax Microplate Reader). The optical density (O.D.) of each well was normalized by subtracting the reading at 570 nm from the reading at 450 nm.

Data set [2] is described as follows: Plasma pharmacokinetics in naive Balb/C mouse, LC-MS/MS. Type of data set: in vivo. The settings on record: 1.5 mg/kg single IV. The procedure: For in vivo evaluation of STING agonist compounds described herein in naïve Balb/C mouse, single doses of STING agonist compounds were given at 1.5 mg/kg intravenously into female BALB/c mice (Orientbio, South Korea) at 6-8 weeks of age. Pharmacokinetics were studied following injection of the STING agonist compounds into Balb/C mice. Plasma samples were taken at various time points and stored frozen for analysis. The plasma concentrations of the STING agonist compounds at the indicated time points were measured using a LC-MS/MS analysis method.
Briefly, 250 μL of acetonitrile (ACN) solution was added in both 50 μL of sample and 50 μL of plasma containing 10 nM Dextromethorphan (internal standard), and the solutions were mixed vigorously using a vortex mixer for 5 minutes. The samples were then spun down at 14,000 rpm, 4° C. for 5 minutes. 100 μL of supernatants were combined with 100 μL of mobile phase A (0.1% formic acid in water with 5% ACN) and mixed thoroughly. The samples were measured for the STING agonist compounds using a LC-MS/MS (Nexera LC40 (SHIMADZU) and QTRAP4500 (SCIEX)).

T1 sequence (Q86WV6 whole entry H232R): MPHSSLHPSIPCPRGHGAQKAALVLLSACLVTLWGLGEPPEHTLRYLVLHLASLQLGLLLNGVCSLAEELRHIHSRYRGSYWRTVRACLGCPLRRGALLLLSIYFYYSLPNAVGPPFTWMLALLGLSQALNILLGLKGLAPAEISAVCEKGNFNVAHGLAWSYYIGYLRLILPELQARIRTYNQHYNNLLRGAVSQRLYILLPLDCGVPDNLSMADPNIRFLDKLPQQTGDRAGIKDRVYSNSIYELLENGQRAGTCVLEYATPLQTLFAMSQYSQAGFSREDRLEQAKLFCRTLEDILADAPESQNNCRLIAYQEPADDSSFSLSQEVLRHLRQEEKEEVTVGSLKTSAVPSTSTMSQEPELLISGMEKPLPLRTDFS

`CCn1nc(C)cc1C(=O)Nc1nc2cc(C(N)=O)cc(OC)c2n1CC=CCn1c(NC(=O)c2cc(C)nn2CC)nc2cc(C(N)=O)cc(OCCCN3CCN(C(=O)OCc4ccc(OC5OC(C(=O)O)C(O)C(O)C5O)c(C(=O)NCCOC)c4)CC3=O)c21` (stereo not drawn) [Compound 221]: the EC50 – broadly, the concentration needed to bring the measured effect to its halfway point – on hSTING-WT (R232) amounted to 68.3 nM. Also, the “human CXCL-10 production” value in data set [1] (FIG. 1A) was “induced cytokine production”. Moreover, in data set [1] (FIG. 1B), the “human IFNα production” value is recorded as “induced cytokine production”. Also, in data set [2] (n = 3, dose-normalised), the “AUC∞, norm” value stood at 4.53 ± 0.15 kg·h/L and the “Cmax, norm” value was 5.37 ± 0.30 kg/L. In data set [2] (female, n = 3, plasma), the AUC(0-inf) (usually the area under the concentration-time curve extrapolated to infinity) was determined as 6800 ± 230 ng·h/mL; the AUC(0-t) (commonly the area under the concentration-time curve up to a stated or last time point) is 6670 ± 220 ng·h/mL; the C0 was found to be 9790 ± 430 ng/mL; the Cmax (in general, the highest concentration seen after dosing) came to 8060 ± 450 ng/mL. In data set [2] (female, plasma, n = 3), the clearance – broadly, a measure of how efficiently the substance is removed, as volume per time – is 3.67 mL/min/kg and the half-life – broadly, the time in which the quantity being followed falls by half – was 63.6 ± 2.4 min. Moreover, the Vd in data set [2] (female, plasma, n = 3, read-out: VSS) came to 0.26 ± 0.01 L/kg.
